Results as given in patent US11655239B2 (SHANGHAI INSTITUTE OF MATERIAL MEDICA, CHINESE ACADEMY OF …, priority 2019, dated 2023).

Columns and labels:
Format in all cases: biochemical
IGF-1R = IGF-1R (Homo sapiens (Human), UniProt P08069); assay: Enzyme selectivity test (ELISA), IGF-1R
Experimental: (§1) 1) Enzyme reaction substrate Poly(Glu, Tyr) 4:1 was diluted to 20 μg/mL with potassium-free PBS (10 mM sodium phosphate buffer, 150 mM NaCl, pH 7.2-7.4), and the microtiter plate was coated with 125 μL/well and placed at 37° C. for 12-16 hours of reaction. The liquid in the well was discard. The plate was washed three times with T-PBS (potassium-free PBS containing 0.1% Tween-20, 200 μL/well), 5 minutes each time. The ELISA plate was dried in an oven at 37° C. for 1 to 2 hours.
(§2) 2) Reaction buffer (50 mM HEPES pH 7.4, 50 mM MgCl2, 0.5 mM MnCl2, 0.2 mM Na3VO4, 1 mM DTT) diluted ATP solution (49 μL) was added to each well, 1 μL of the compound to be tested was added to each well, and then 50 μL of DDR2 kinase domain recombinant protein diluted in the reaction buffer was added to start the reaction. Two control wells without ATP were set in each experiment. The plate placed on a shaker (100 rpm) at 37° C. for 1 hour of reaction. The liquid in the well was discarded and the plate was washed three times with T-PBS.
(§3) 3) Antibody PY99 dilution solution (the antibody was diluted 1:500 with T-PBS containing BSA 5 mg/mL) was added at 100 μL/well, and shaken on a shaker at 37° C. for 0.5 hour of reaction. The liquid in the well was discarded and the plate was washed three times with T-PBS.
(§4) 4) Horseradish peroxidase labeled goat anti-murine secondary antibody dilution solution (the antibody is diluted 1:2000 with T-PBS containing BSA 5 mg/ml) was added at 100 μL/well, and shaken on a shaker at 37° C. for 0.5 hour of reaction. The liquid in the well was discarded and the plate was washed three times with T-PBS.
(§5) 5) 2 mg/ml of OPD color developing solution [diluted with 0.1 M citric acid-sodium citrate buffer (pH=5.4) containing 0.03% H2O2] was added at 100 μL/well and reacted for 1 to 10 minutes at 25° C. in the dark.
(§6) 6) 2M H2SO4 was added at 50 μL/well to stop the reaction, and a tunable wavelength microplate reader VERSAmax was used for reading at a wavelength of 490 nm.
(§7) The IC50 value was obtained by four-parameter regression using the software that came with the microplate reader. […]

Flt-3 = Flt-3 (Homo sapiens (Human), UniProt P36888); assay: Enzyme selectivity test (ELISA), Flt-3
Experimental: as §1, §2, §3, §4, §5, §6, §7

KDR = KDR (Homo sapiens (Human), UniProt P35968); assay: Enzyme selectivity test (ELISA), KDR
Experimental: as §1, §2, §3, §4, §5, §6, §7

C-Kit = C-Kit (Homo sapiens (Human), UniProt P10721); assay: Enzyme selectivity test (ELISA), C-Kit
Experimental: as §1, §2, §3, §4, §5, §6, §7

FGFR-3 = FGFR-3 (Homo sapiens (Human), UniProt P22607); assay: Enzyme selectivity test (ELISA), FGFR-3
Experimental: as §1
as §2, with “T-PBS. […]” for “T-PBS.”
as §6, §7

FGFR-2 = FGFR-2 (Homo sapiens (Human), UniProt P21802); assay: Enzyme selectivity test (ELISA), FGFR-2
Experimental: as §1
as §2, with “T-PBS. […]” for “T-PBS.”
as §6, §7

PDGFR-β = PDGFR-β (Homo sapiens (Human), UniProt P09619); assay: Enzyme selectivity test (ELISA), PDGFR-β
Sequence of PDGFR-β (P09619 33-1106, species assumed): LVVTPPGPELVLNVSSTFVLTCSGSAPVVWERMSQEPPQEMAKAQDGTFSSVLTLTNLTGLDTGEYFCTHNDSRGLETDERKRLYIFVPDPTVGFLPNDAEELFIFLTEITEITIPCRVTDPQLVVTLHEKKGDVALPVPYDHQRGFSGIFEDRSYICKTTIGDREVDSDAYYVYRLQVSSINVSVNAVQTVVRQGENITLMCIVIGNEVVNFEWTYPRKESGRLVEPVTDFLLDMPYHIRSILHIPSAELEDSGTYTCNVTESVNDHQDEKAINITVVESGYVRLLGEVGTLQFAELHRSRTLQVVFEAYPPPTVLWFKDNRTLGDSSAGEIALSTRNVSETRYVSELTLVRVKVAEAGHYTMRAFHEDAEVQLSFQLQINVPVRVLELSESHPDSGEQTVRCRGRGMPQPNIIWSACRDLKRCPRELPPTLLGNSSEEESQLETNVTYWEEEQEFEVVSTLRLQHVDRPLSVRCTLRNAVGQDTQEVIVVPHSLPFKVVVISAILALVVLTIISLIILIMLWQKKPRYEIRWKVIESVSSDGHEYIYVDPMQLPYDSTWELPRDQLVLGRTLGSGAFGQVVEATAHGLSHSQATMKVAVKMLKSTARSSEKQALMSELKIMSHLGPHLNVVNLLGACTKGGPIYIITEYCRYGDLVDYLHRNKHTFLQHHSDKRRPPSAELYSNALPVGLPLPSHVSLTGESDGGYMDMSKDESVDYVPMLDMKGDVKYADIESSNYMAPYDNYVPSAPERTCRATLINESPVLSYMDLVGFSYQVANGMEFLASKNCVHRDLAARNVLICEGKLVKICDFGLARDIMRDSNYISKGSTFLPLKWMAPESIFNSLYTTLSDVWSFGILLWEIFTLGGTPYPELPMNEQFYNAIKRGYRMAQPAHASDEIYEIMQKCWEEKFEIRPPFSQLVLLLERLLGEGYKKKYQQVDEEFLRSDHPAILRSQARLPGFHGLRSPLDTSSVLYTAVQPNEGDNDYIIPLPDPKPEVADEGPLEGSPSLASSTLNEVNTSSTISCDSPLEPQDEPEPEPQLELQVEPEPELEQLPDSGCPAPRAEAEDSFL
Experimental: as §1, §2, §3, §4, §5, §6, §7

PDGFR-α = PDGFR-α (Homo sapiens (Human), UniProt P16234); assay: Enzyme selectivity test (ELISA), PDGFR-α
Experimental: as §1, §2, §3, §4, §5, §6, §7

FGFR-4 = FGFR-4 (Homo sapiens (Human), UniProt P22455); assay: Enzyme selectivity test (ELISA), FGFR-4
Experimental: as §1
as §2, with “T-PBS. […]” for “T-PBS.”
as §6, §7

ALK = ALK (Homo sapiens (Human), UniProt Q9UM73); assay: Enzyme selectivity test (ELISA), ALK
Experimental: as §1, §2, §3, §4, §5, §6, §7

kinases = assay: Enzyme selectivity test, kinase panel overall; settings: kinase panel of Table 5
Source text: Except that the enzyme was different, other test methods and conditions were the same as the DDR2 enzyme activity test method in Effect example 1.

RET = RET (Homo sapiens (Human), UniProt P07949); assay: Enzyme selectivity test (ELISA), RET
Experimental: as §1, §2, §3, §4, §5, §6, §7

EGFR = EGFR (Homo sapiens (Human), UniProt P00533); assay: Enzyme selectivity test (ELISA), EGFR
Experimental: as §1, §2, §3, §4, §5, §6, §7

AXL = AXL (Homo sapiens (Human), UniProt P30530); assay: Enzyme selectivity test (ELISA), AXL
Experimental: as §1, §2, §3, §4, §5, §6, §7

VEGFR-1 = VEGFR-1 (Homo sapiens (Human), UniProt P17948); assay: Enzyme selectivity test (ELISA), VEGFR-1
Experimental: as §1, §2, §3, §4, §5, §6, §7

Abl = Abl (Homo sapiens (Human), UniProt P00519); assay: Enzyme selectivity test (ELISA), Abl
Experimental: as §1, §2, §3, §4, §5, §6, §7

DDR2 = DDR2 (Homo sapiens (Human), UniProt Q16832); assay: DDR2 enzyme activity test (ELISA); settings: read-out: DDR2 IC50
Sequence of DDR2 (Q16832 563-849): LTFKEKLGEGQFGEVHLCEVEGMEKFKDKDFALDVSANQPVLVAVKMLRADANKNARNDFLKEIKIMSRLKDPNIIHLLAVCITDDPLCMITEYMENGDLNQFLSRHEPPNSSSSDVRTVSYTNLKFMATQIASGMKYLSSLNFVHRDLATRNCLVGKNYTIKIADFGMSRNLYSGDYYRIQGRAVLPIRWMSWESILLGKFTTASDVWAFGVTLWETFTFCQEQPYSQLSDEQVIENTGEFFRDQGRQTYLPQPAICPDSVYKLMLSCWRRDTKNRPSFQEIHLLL
Experimental: The optical rotation and the inhibitory activity against DDR2 enzyme of the compounds S11-A and S11-B obtained by the resolution in Example 12, and the chirally synthesized compounds S11-A′ and S11-B′ in Example 13 were tested (referred to the operation in Effect example 1), and the results are shown in Table 3 below:
Detection method: Enzyme-linked immunosorbent assay (ELISA)
Test receptor tyrosine kinase: DDR2
The kinase used in the experiment was obtained by our laboratory using the insect baculovirus expression system to express and purify the recombinant protein containing the protein kinase region; polyglutamic acid-tyrosine peptide segment [Poly(Glu, Tyr) 4:1] and sodium vanadate were purchased from Sigma; the anti-phosphorylated monoclonal antibody PY99 was purchased from Santa Cruz; horseradish peroxidase labeled goat anti-murine secondary antibody was purchased from Calbiochem; ATP and OPD were purchased from Sangon Biotech (Shanghai) Co., Ltd.; the remaining reagents were purchased from Sinopharm Chemical Reagent Co., Ltd. The reaction ELISA plate (#2592) was purchased from Corning. The full-wavelength microplate reader for experiment reading was a product of Molecular Device, model: SpectraMax 190; the experimental water was distilled water produced by Sinopharm Group.
The compound was centrifuged at 12,000 g for 5 min, and DMSO was added to prepare a 10^-2M stock solution, which was vortexed evenly, then sonicated for 10 min and stored at −40° C. for later use. During the test, the compound was diluted with DMSO from the stock solution to 100 times the test concentration (the DMSO concentration in the system was 1%).
as §1, §2, §3, §4, §5, §6
The IC50 value was obtained by four-parameter regression using the software that came with the microplate reader.

ErbB2 = ErbB2 (Homo sapiens (Human), UniProt P04626); assay: Enzyme selectivity test (ELISA), ErbB2
Experimental: as §1, §2, §3, §4, §5, §6, §7

ErbB4 = ErbB4 (Homo sapiens (Human), UniProt Q15303); assay: Enzyme selectivity test (ELISA), ErbB4
Experimental: as §1, §2, §3, §4, §5, §6, §7

Src = Src (Homo sapiens (Human), UniProt P12931); assay: Enzyme selectivity test (ELISA), Src
Experimental: as §1, §2, §3, §4, §5, §6, §7

Met = Met (Homo sapiens (Human), UniProt P08581); assay: Enzyme selectivity test (ELISA), Met
Sequence of Met (P08581 25-1390): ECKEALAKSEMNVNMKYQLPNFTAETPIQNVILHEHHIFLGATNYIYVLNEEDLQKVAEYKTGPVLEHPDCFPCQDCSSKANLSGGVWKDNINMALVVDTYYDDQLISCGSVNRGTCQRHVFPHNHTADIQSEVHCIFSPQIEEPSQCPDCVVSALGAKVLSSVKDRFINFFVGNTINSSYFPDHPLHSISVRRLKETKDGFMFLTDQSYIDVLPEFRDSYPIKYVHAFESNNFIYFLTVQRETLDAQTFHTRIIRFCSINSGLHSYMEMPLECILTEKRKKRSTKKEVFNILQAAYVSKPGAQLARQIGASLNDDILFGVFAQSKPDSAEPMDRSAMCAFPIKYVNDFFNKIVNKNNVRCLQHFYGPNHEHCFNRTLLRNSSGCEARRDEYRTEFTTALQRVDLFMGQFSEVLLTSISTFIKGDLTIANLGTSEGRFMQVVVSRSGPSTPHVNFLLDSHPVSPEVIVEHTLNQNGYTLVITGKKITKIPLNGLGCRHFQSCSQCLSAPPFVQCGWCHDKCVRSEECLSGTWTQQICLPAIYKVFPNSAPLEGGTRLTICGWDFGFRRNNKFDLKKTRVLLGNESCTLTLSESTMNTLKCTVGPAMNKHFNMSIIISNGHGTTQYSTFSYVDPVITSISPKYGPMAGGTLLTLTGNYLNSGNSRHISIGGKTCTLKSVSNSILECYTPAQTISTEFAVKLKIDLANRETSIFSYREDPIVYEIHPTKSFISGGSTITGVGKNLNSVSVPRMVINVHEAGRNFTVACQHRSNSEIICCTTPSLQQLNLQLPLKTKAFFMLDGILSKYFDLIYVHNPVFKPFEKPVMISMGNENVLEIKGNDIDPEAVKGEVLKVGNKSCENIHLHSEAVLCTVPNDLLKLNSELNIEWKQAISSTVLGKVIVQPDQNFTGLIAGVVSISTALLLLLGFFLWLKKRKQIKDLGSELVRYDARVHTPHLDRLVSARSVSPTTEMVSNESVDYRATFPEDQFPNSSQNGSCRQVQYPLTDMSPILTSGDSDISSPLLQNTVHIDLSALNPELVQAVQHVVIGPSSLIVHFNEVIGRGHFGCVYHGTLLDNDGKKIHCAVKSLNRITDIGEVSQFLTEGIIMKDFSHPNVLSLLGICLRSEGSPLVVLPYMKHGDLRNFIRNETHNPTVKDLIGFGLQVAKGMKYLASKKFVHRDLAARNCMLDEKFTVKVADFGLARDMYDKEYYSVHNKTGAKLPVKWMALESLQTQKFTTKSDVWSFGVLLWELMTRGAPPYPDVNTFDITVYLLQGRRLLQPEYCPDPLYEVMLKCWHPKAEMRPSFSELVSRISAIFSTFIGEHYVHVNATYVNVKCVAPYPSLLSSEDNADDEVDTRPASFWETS
Experimental: as §1, §2, §3, §4, §5, §6, §7

EPH-A2 = EPH-A2 (Homo sapiens (Human), UniProt P29317); assay: Enzyme selectivity test (ELISA), EPH-A2
Experimental: as §1, §2, §3, §4, §5, §6, §7

FGFR-1 = FGFR-1 (Homo sapiens (Human), UniProt P11362); assay: Enzyme selectivity test (ELISA), FGFR-1
Sequence of FGFR-1 (P11362 22-822, species assumed): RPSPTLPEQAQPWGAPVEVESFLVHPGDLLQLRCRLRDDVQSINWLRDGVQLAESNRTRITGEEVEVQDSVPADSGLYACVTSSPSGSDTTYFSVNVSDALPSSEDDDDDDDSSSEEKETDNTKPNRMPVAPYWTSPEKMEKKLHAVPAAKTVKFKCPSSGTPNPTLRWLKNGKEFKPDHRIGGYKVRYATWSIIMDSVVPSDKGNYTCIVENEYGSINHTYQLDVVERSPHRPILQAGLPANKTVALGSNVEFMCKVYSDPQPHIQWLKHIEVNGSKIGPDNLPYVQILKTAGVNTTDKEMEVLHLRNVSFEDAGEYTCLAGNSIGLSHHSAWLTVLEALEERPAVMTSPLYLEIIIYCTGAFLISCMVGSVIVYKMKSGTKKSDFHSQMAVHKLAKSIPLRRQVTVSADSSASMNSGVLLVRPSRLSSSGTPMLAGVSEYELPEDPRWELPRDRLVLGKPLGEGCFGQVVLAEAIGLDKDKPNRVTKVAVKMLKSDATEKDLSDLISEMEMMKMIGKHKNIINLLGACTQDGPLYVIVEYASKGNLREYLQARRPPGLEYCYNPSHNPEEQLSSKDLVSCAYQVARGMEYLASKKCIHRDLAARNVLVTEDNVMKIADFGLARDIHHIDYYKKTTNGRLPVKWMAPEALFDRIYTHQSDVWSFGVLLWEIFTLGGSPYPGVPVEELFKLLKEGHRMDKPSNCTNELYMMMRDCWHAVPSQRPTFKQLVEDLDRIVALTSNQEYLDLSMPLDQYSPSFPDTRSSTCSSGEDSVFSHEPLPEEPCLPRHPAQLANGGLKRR
Experimental: as §1, §2, §3, §4, §5, §6, §7

Sequence of IGF-1R (P08069 31-1367, species assumed): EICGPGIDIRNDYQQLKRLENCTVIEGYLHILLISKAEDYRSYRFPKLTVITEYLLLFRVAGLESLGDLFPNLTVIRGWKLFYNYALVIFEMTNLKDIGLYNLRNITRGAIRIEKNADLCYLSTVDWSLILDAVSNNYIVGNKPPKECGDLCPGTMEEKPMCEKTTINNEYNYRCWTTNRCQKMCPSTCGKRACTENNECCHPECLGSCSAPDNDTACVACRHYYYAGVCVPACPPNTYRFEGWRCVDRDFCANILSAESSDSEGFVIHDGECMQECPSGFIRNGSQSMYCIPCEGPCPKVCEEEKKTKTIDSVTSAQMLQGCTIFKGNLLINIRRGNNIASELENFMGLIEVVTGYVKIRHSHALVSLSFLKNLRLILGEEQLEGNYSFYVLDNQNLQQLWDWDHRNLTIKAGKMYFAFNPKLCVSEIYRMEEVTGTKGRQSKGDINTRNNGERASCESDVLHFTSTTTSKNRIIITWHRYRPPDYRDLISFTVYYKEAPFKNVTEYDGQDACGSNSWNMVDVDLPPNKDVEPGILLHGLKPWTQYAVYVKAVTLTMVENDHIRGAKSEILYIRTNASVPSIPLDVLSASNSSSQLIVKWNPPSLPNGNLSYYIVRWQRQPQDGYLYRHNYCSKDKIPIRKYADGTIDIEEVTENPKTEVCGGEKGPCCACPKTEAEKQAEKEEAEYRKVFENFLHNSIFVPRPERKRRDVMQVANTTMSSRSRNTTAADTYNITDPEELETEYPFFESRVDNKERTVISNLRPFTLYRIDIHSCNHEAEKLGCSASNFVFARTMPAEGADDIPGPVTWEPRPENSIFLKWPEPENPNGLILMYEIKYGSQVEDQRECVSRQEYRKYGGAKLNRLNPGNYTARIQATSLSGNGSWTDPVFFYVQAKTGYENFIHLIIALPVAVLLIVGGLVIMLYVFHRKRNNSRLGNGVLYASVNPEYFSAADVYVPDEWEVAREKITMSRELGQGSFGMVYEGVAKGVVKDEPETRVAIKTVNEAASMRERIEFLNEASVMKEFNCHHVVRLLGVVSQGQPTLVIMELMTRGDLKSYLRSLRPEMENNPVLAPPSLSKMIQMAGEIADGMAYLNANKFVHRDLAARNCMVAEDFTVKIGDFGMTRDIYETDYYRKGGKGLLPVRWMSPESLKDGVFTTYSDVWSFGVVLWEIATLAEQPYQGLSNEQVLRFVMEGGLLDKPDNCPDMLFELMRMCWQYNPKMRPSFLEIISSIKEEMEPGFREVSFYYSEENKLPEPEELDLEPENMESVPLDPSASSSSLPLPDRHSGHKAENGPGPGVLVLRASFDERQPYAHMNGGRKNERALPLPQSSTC

- IC50 (IGF-1R): > 1 µM
- IC50 (Flt-3): > 1 µM
- IC50 (KDR): > 1 µM
- IC50 (C-Kit): > 1 µM
- IC50 (FGFR-3): > 1 µM
- IC50 (FGFR-2): > 1 µM
- IC50 (PDGFR-β): > 1 µM
- IC50 (PDGFR-α): > 1 µM
- IC50 (FGFR-4): > 1 µM
- IC50 (ALK): > 1 µM
- selectivity for kinases (kinases): good selectivity
- IC50 (RET): > 1 µM
- IC50 (EGFR): > 1 µM
- IC50 (AXL): > 1 µM
- IC50 (VEGFR-1): > 1 µM
- IC50 (Abl): > 1 µM
- IC50 (DDR2): 0.0383 ± 0.0028 µM
- IC50 (ErbB2): > 1 µM
- IC50 (ErbB4): > 1 µM
- IC50 (Src): > 1 µM
- IC50 (Met): > 1 µM
- IC50 (EPH-A2): > 1 µM
- IC50 (FGFR-1): > 1 µM
SMILES: CC(NC(=O)c1ccc(C2CC2)c(-c2ccc3nc(Nc4cnn(C5CC5)c4)ncc3c2)c1)c1cccc(C(F)(F)F)c1 (centres unmarked) [Compound S16, 4-cyclopropyl-3-(2-((1-cyclopropyl-1H-pyrazol-4-yl)amino)quinazolin-6-yl)-N-(1-(3-(trifluoromethyl)phenyl)ethyl)benzamide]
